Values quoted from earlier work as cited in patent US12582665B2, “Topical composition” (FUTURA MEDICAL DEVELOPMENTS LIMITED, priority 2020, dated 2026).

Assays:
[1] = not given; remark: listed apart in the source

C=C(C)[C@@H]1CCC(C)=C[C@H]1c1c(O)cc(CCCCC)cc1O [CBD, cannabidiol]
log P: ~+6.00 | Solubility in propylene glycol [1]: exceeding 10 % w/w
